Experimental data published in US11274332B2, “Methods of administering 3,4-diaminopyridine” (SERB SA, priority 2011, dated 2022).
Like-named read-outs stand apart in the source and are kept apart here.

Assay: Example 18 Part 2: multiple dose PK (20 mg QID) of 3,4-DAP and 3-N-acetyl metabolite in slow and fast acetylators
Type: in vivo, human
Details: for AUC(0-t) / Cmax / Tmax / Vd/F / half-life: both sexes, human, plasma, oral, 20 mg; for Cmax: read-out: Cmax; for Tmax: read-out: Tmax; for Vd/F: read-out: Vz/F; for half-life: read-out: t1/2 (converted)
Protocol: The following method was used to analyze concentrations of 3,4-diaminopyridine and N-(4-aminopyridin-3-yl)acetamide in plasma and urine samples for the experiments in Example 18. In the LC/MS/MS method, the human plasma and urine samples were extracted using acetonitrile containing 0.1% formic acid. Samples were analyzed by using HPLC with positive ion electrospray MS/MS detection. The column was an Atlantis HILIC Silica column (3 μm, 3×50 mm) at a temperature of 40° C. Mobile phase A was water containing ammonium formate (20 mM) and 0.1% formic acid. Mobile phase B was acetonitrile/isopropanol (90/10; v/v) containing 0.1% formic acid. The flow rate was 0.90 mL/minute. The gradient conditions for human plasma and urine samples were as follows:
The LC/MS/MS method was validated to quantify 3,4-DAP in human plasma in the linear calibration range of 0.500 to 500 ng/mL and from 1.00 to 1000 ng/mL for the 3-N-acetyl metabolite.
The primary objective of the study was to assess the safety and tolerability of 3,4-DAP phosphate after single and multiple doses. The secondary objectives of the study were • Part 1 only: To determine the dose-related PK profile of amifampridine and of 3-N-acetyl amifampridine after single, escalating doses of 3,4-DAP phosphate • Part 2 only: To assess the steady-state plasma PK and accumulation of amifampridine and of 3-N-acetyl amifampridine over multiple days of dosing with 3,4-DAP phosphate An exploratory objective was to examine the overall activity of the N-acetyl transferase enzymes on the metabolism of amifampridine by assessing the PK of amifampridine and 3-N-acetyl amifampridine with phenotypic acetylation activity and genotyping determination of NAT2 gene polymorphisms. Study Design and Plan
This open-label study in healthy subjects (male and female) was conducted in 2 parts. A total of 26 healthy male and female subjects, 12 in Part 1 (at least 5 of each sex), 4 in Part 2 Group 1, and 10 in Part 2 Group 2 (at least 4 of each sex) were enrolled into the study. The same subjects were not enrolled to participate in both parts. Subjects in Part 2 were dosed only after all subjects of Part 1 completed dosing and at least 24-hours of follow-up safety evaluation after the last dose were completed.
All subjects were characterized for their metabolic acetylation phenotype and NAT2 genotype in order to divide subjects into two groups of acetylators. Volunteers were genetically typed for highly variant alleles of the N-acetyl transferase 2 enzyme (NAT2) domain on chromosome 8 (according to Example 16) and were phenotyped for acetylation rates with a caffeine challenge test (according to Example 15a). Approximately equal numbers of slow and fast acetylators (as defined by a caffeine challenge test in Example 15a) were enrolled in each group. In Part 2, very slow acetylators with NAT2 activity (ratio 1, Example 15a) below 0.06 were excluded from participation in the study. In each part of the study, subjects were assessed for PK, safety, and tolerability and all doses were administered within 30 min of ingestion of a meal or a snack.
Part 2, Group 1: Four sentinel subjects were selected after determining their acetylator status. Two were fast acetylators and two were slow acetylators. All four were dosed on Day 1 with 4 oral doses of 20 mg of 34-DAP phosphate (given at 4-hour dosing intervals). On Days […] and 2, safety and tolerability data was collected. Subjects left the clinic on Day 2. The safety and tolerability data collected for these 4 sentinel subjects were reviewed. The safety and tolerability results of Days 1 and 2 for these subjects were acceptable and thus Part 2 Group 2 was commenced. Minimally acceptable safety was defined as the absence of clinical seizure activity. Subjects in Group 1 returned to the clinic for their follow-up assessments 2-4 days following their last dose.
Each subject was given a final morning dose of 20 mg 3,4-DAP phosphate on Day 4. […]

[1] = Day 1, fast acetylators, Dose 1 interval, 20 mg QID, arith. mean
[2] = Day 1, fast acetylators, Dose 2 interval, 20 mg QID, arith. mean
[3] = Day 1, fast acetylators, Dose 3 interval, 20 mg QID, arith. mean
[4] = Day 1, fast acetylators, Dose 4 interval, 20 mg QID, arith. mean
[5] = Day 1, slow acetylators, Dose 1 interval, 20 mg QID, arith. mean
[6] = Day 1, slow acetylators, Dose 2 interval, 20 mg QID, arith. mean
[7] = Day 1, slow acetylators, Dose 3 interval, 20 mg QID, arith. mean
[8] = Day 1, slow acetylators, Dose 4 interval, 20 mg QID, arith. mean
[9] = Day 3, fast acetylators, Dose 1 interval, 20 mg QID, arith. mean
[10] = Day 3, fast acetylators, Dose 2 interval, 20 mg QID, arith. mean
[11] = Day 3, fast acetylators, Dose 3 interval, 20 mg QID, arith. mean
[12] = Day 3, fast acetylators, Dose 4 interval, 20 mg QID, arith. mean
[13] = Day 3, slow acetylators, Dose 1 interval, 20 mg QID, arith. mean
[14] = Day 3, slow acetylators, Dose 2 interval, 20 mg QID, arith. mean
[15] = Day 3, slow acetylators, Dose 3 interval, 20 mg QID, arith. mean
[16] = Day 3, slow acetylators, Dose 4 interval, 20 mg QID, arith. mean
[17] = metabolite, Day 4, 20 mg single dose, fast acetylators
[18] = metabolite, Day 4, 20 mg single dose, slow acetylators

## CC(=O)Nc1cnccc1N [3-N-acetyl amifampridine, N-(4-aminopyridin-3-yl)acetamide]
[1]
  CL/F: 16.2 L/h
  Cmax: 333 ng/mL
  Tmax: 1.43 h
  Vd/F: 55.2 L
  half-life: 2.35 h
[2]
  CL/F: 7.78 L/h
  Cmax: 396 ng/mL
  Tmax: 1.5 h
  Vd/F: 32.9 L
  half-life: 2.93 h
[3]
  CL/F: 8.90 L/h
  Cmax: 426 ng/mL
  Tmax: 0.964 h
  Vd/F: 40.3 L
  half-life: 3.28 h
[4]
  CL/F: 7.62 L/h
  Cmax: 433 ng/mL
  Tmax: 1.14 h
  Vd/F: 40 L
  half-life: 3.93 h
[5]
  CL/F: 28.8 L/h
  Cmax: 150 ng/mL
  Tmax: 1.68 h
  Vd/F: 120 L
  half-life: 2.95 h
[6]
  CL/F: 20.2 L/h
  Cmax: 204 ng/mL
  Tmax: 1.46 h
  Vd/F: 101 L
  half-life: 3.5 h
[7]
  CL/F: 13.5 L/h
  Cmax: 240 ng/mL
  Tmax: 1.25 h
  Vd/F: 71.5 L
  half-life: 4 h
[8]
  CL/F: 10.4 L/h
  Cmax: 235 ng/mL
  Tmax: 1.71 h
  Vd/F: 70.6 L
  half-life: 4.74 h
[9]
  CL/F: 11.5 L/h
  Cmax: 374 ng/mL
  Tmax: 1.35 h
  Vd/F: 44.5 L
  half-life: 2.77 h
[10]
  CL/F: 7.56 L/h
  Cmax: 448 ng/mL
  Tmax: 1.3 h
  Vd/F: 36.6 L
  half-life: 3.6 h
[11]
  CL/F: 7.72 L/h
  Cmax: 490 ng/mL
  Tmax: 0.9 h
  Vd/F: 39.2 L
  half-life: 3.74 h
[12]
  CL/F: 7.03 L/h
  Cmax: 509 ng/mL
  Tmax: 1.1 h
  Vd/F: 42 L
  half-life: 4.17 h
[13]
  CL/F: 19.0 L/h
  Cmax: 206 ng/mL
  Tmax: 1.75 h
  Vd/F: 95 L
  half-life: 3.47 h
[14]
  CL/F: 14.5 L/h
  Cmax: 222 ng/mL
  Tmax: 1.5 h
  Vd/F: 81.5 L
  half-life: 3.89 h
[15]
  CL/F: 12.7 L/h
  Cmax: 249 ng/mL
  Tmax: 1.2 h
  Vd/F: 68.1 L
  half-life: 3.75 h
[16]
  CL/F: 9.65 L/h
  Cmax: 258 ng/mL
  Tmax: 0.9 h
  Vd/F: 78.3 L
  half-life: 5.7 h
Day 1, fast acetylators, Dose 1-4, 20 mg QID, arith. mean, read-out: AUC0-24
  AUC(0-t): 5740 ng·h/mL
Day 1, fast acetylators, Dose 1 interval, 20 mg QID, arith. mean, read-out: AUC0-4
  AUC(0-t): 773 ng·h/mL
Day 1, fast acetylators, Dose 2 interval, 20 mg QID, arith. mean, read-out: AUC0-4
  AUC(0-t): 1160 ng·h/mL
Day 1, fast acetylators, Dose 3 interval, 20 mg QID, arith. mean, read-out: AUC0-4
  AUC(0-t): 1280 ng·h/mL
Day 1, fast acetylators, Dose 4 interval, 20 mg QID, arith. mean, read-out: AUC0-4
  AUC(0-t): 1340 ng·h/mL
Day 1, slow acetylators, Dose 1-4, 20 mg QID, arith. mean, read-out: AUC0-24
  AUC(0-t): 3580 ng·h/mL
Day 1, slow acetylators, Dose 1 interval, 20 mg QID, arith. mean, read-out: AUC0-4
  AUC(0-t): 383 ng·h/mL
Day 1, slow acetylators, Dose 2 interval, 20 mg QID, arith. mean, read-out: AUC0-4
  AUC(0-t): 627 ng·h/mL
Day 1, slow acetylators, Dose 3 interval, 20 mg QID, arith. mean, read-out: AUC0-4
  AUC(0-t): 759 ng·h/mL
Day 1, slow acetylators, Dose 4 interval, 20 mg QID, arith. mean, read-out: AUC0-4
  AUC(0-t): 769 ng·h/mL
Day 3, fast acetylators, Dose 1-4, 20 mg QID, arith. mean, read-out: AUC0-24
  AUC(0-t): 6570 ng·h/mL
Day 3, fast acetylators, Dose 1 interval, 20 mg QID, arith. mean, read-out: AUC0-4
  AUC(0-t): 1020 ng·h/mL
Day 3, fast acetylators, Dose 2 interval, 20 mg QID, arith. mean, read-out: AUC0-4
  AUC(0-t): 1320 ng·h/mL
Day 3, fast acetylators, Dose 3 interval, 20 mg QID, arith. mean, read-out: AUC0-4
  AUC(0-t): 1410 ng·h/mL
Day 3, fast acetylators, Dose 4 interval, 20 mg QID, arith. mean, read-out: AUC0-4
  AUC(0-t): 1460 ng·h/mL
Day 3, slow acetylators, Dose 1-4, 20 mg QID, arith. mean, read-out: AUC0-24
  AUC(0-t): 3650 ng·h/mL
Day 3, slow acetylators, Dose 1 interval, 20 mg QID, arith. mean, read-out: AUC0-4
  AUC(0-t): 523 ng·h/mL
Day 3, slow acetylators, Dose 2 interval, 20 mg QID, arith. mean, read-out: AUC0-4
  AUC(0-t): 684 ng·h/mL
Day 3, slow acetylators, Dose 3 interval, 20 mg QID, arith. mean, read-out: AUC0-4
  AUC(0-t): 802 ng·h/mL
Day 3, slow acetylators, Dose 4 interval, 20 mg QID, arith. mean, read-out: AUC0-4
  AUC(0-t): 814 ng·h/mL
metabolite, Day 4, 20 mg single dose, fast acetylators, read-out: Mean AUC0-4
  AUC(0-t): 1030 ng·h/mL
metabolite, Day 4, 20 mg single dose, fast acetylators, read-out: Mean AUC0-24
  AUC(0-t): 2120 ng·h/mL
metabolite, Day 4, 20 mg single dose, slow acetylators, read-out: Mean AUC0-4
  AUC(0-t): 513 ng·h/mL
metabolite, Day 4, 20 mg single dose, slow acetylators, read-out: Mean AUC0-24
  AUC(0-t): 1230 ng·h/mL
[17]
  Mean CL/F: 69.4 L/h
  Mean t1/2: 1.40 h
[18]
  Mean CL/F: 116 L/h
  Mean t1/2: 1.55 h
